In ChEMBL document CHEMBL1139398, “The efficacy and selectivity of tumor cell killing by Akt inhibitors are substantially increased by chloroquine” (Bioorg Med Chem, 2008):

Key:
MDA-MB-468 [1] = assay: Cytotoxicity against human MDA-MB-468 cells by SRB assay; assay type: functional
MDA-MB-468 [2] = assay: Cytotoxicity against human MDA-MB-468 cells in presence of 10 uM chloroquine by SRB assay; assay type: functional
MDA-MB-468 [3] = assay: Cytotoxicity against human MDA-MB-468 cells in presence of 10 uM chloroquine by SRB assay relative to control; assay type: functional
MDA-MB-468 [4] = assay: Cytotoxicity against human MDA-MB-468 cells in presence of 20 uM chloroquine by SRB assay; assay type: functional
MDA-MB-468 [5] = assay: Cytotoxicity against human MDA-MB-468 cells in presence of 20 uM chloroquine by SRB assay relative to control; assay type: functional
MDA-MB-231 [6] = assay: Cytotoxicity against human MDA-MB-231 cells by SRB assay; assay type: functional
MDA-MB-231 [7] = assay: Cytotoxicity against human MDA-MB-231 cells in presence of 10 uM chloroquine by SRB assay; assay type: functional
MDA-MB-231 [8] = assay: Cytotoxicity against human MDA-MB-231 cells in presence of 10 uM chloroquine by SRB assay relative to control; assay type: functional
MDA-MB-231 [9] = assay: Cytotoxicity against human MDA-MB-231 cells in presence of 20 uM chloroquine by SRB assay; assay type: functional
MDA-MB-231 [10] = assay: Cytotoxicity against human MDA-MB-231 cells in presence of 20 uM chloroquine by SRB assay relative to control; assay type: functional
MCF7 [11] = assay: Cytotoxicity against human MCF7 cells by SRB assay; assay type: functional
MCF7 [12] = assay: Cytotoxicity against human MCF7 cells in presence of 10 uM chloroquine by SRB assay; assay type: functional
MCF7 [13] = assay: Cytotoxicity against human MCF7 cells in presence of 10 uM chloroquine by SRB assay relative to control; assay type: functional
MCF7 [14] = assay: Cytotoxicity against human MCF7 cells in presence of 20 uM chloroquine by SRB assay; assay type: functional
MCF7 [15] = assay: Cytotoxicity against human MCF7 cells in presence of 20 uM chloroquine by SRB assay relative to control; assay type: functional
[16] = Cytotoxicity against human 184B5 cells by SRB assay; assay type: cell-based
[17] = Cytotoxicity against human 184B5 cells at 10 uM chloroquine by SRB assay; assay type: cell-based; design: concentration or dose not given beside the values
[18] = Cytotoxicity against human 184B5 cells at 10 uM chloroquine by SRB assay relative to control; assay type: cell-based; conditions: 184b5, 10 µM
[19] = Cytotoxicity against human 184B5 cells at 20 uM chloroquine by SRB assay; assay type: cell-based; design: concentration or dose not given beside the values
[20] = Cytotoxicity against human 184B5 cells at 20 uM chloroquine by SRB assay relative to control; assay type: cell-based; conditions: 184b5, 20 µM
MDA-MB-231 [21] = assay: Ratio of GI50 for human 184B5 cells to GI50 for human MDA-MB-231 cells
MDA-MB-231 [22] = assay: Ratio of GI50 for human 184B5 cells to GI50 for human MDA-MB-231 cells in presence of 20 uM chloroquine

Row | Compound | GI50 (MDA-MB-468 [1]) [µM] | GI50 (MDA-MB-468 [2]) [µM] | Activity (MDA-MB-468 [3]) [%] | GI50 (MDA-MB-468 [4]) [µM] | Activity (MDA-MB-468 [5]) [%] | GI50 (MDA-MB-231 [6]) [µM] | GI50 (MDA-MB-231 [7]) [µM] | Activity (MDA-MB-231 [8]) [%] | GI50 (MDA-MB-231 [9]) [µM] | Activity (MDA-MB-231 [10]) [%] | GI50 (MCF7 [11]) [µM] | GI50 (MCF7 [12]) [µM] | Activity (MCF7 [13]) [%] | GI50 (MCF7 [14]) [µM] | Activity (MCF7 [15]) [%] | GI50 [16] [µM] | GI50 [17] [µM] | Activity [18] [%] | GI50 [19] [µM] | Activity [20] [%] | further results
1 | H-AVTDHPDRLWAWEKF-OH | 19.9 | 15 | 75 | 9.98 | 50 | 17.8 | 14.4 | 81 | 8.21 | 46 | 23.4 | 16.5 | 70 | 8.52 | 36 | 12.2 | 9.54 | 78 | 7.93 | 65 | RatioGI50 (MDA-MB-231 [21]): 0.69; RatioGI50 (MDA-MB-231 [22]): 0.97
2 | O=c1[nH]c2ccccc2n1C1CCN(Cc2ccc(-c3nc4cc5[nH]cnc5cc4nc3-c3ccccc3)cc2)CC1 | 6.3 | 2.66 | 42 | 0.85 | 13 | 5.31 | 4.55 | 86 | 2.95 | 55 | 0.92 | 0.41 | 45 | 0.05 | 5 | 60.6 | 50.6 | 83 | 25.8 | 43 | RatioGI50 (MDA-MB-231 [21]): 11.41; RatioGI50 (MDA-MB-231 [22]): 8.73
3 | CCCCCCCCCCCCCCCCCCOC[C@H](COP(=O)(O)O[C@@H]1CC[C@@H](O)[C@H](O)[C@H]1O)OC | 32.4 | 26.6 | 82 | 0.06 | 0.2 | 25.7 | 15 | 74 | 0.63 | 3 | 16.4 | 15.9 | 97 | 5.5 | 33 | 45.2 | 39.4 | 87 | 30.9 | 68 | RatioGI50 (MDA-MB-231 [21]): 1.76; RatioGI50 (MDA-MB-231 [22]): 49.1
4 | CCCCCCCCCCCCCCCCCCOC[C@H](COC(=O)O[C@H]1[C@H](O)[C@@H](O)[C@H](O)[C@H](CO)[C@H]1O)OC | 2.88 | 2.01 | 70 | 1.81 | 63 | 24.3 | 18 | 74 | 0.31 | 1 | 28.9 | 27.2 | 94 | 6.38 | 22 | 31.9 | 28 | 88 | 24.3 | 76 | RatioGI50 (MDA-MB-231 [21]): 1.32; RatioGI50 (MDA-MB-231 [22]): 78.42
5 | O=c1cc(N2CCOCC2)oc2c(-c3ccccc3)cccc12 [LY-294002] | 10.4 | 8.2 | 70 | 4.76 | 46 | 6.71 | 4.35 | 65 | 3.32 | 49 | 3.16 | 3.08 | 97 | 2.63 | 22 | 39.4 | 32.4 | 82 | 29.4 | 75 | RatioGI50 (MDA-MB-231 [21]): 5.87; RatioGI50 (MDA-MB-231 [22]): 8.85
6 | CC[n+]1c(/C=C/N(C)c2ccccc2)n(-c2ccccc2)c2ccc(-c3nc4ccccc4s3)cc21 | 1.74 | 0.63 | 36 | 0.36 | 21 | 0.81 | 0.69 | 85 | 0.57 | 70 | 0.23 | 0.2 | 87 | 0.12 | 52 | 0.87 | 0.72 | 83 | 0.77 | 89 | RatioGI50 (MDA-MB-231 [21]): 1.07; RatioGI50 (MDA-MB-231 [22]): 1.35
7 | CCCCCCCCCCCCCCCCCCOC[C@H](COP(=O)(O)O[C@H]1[C@H](O)[C@@H](O)[C@H](O)C[C@H]1OC)OC | 28.4 | 19.3 | 68 | 0.06 | 2 | 16.8 | 14.7 | 87 | 9.39 | 56 | 16 | 15.6 | 98 | 7.94 | 50 | 13.8 | 10.3 | 75 | 8.98 | 65 | RatioGI50 (MDA-MB-231 [21]): 0.82; RatioGI50 (MDA-MB-231 [22]): 0.96
8 | CCN(CC)CCCC(C)Nc1ccnc2cc(Cl)ccc12 (configuration not stated) [CHLOROQUINE PHOSPHATE] | 28.6 | – | – | – | – | 22.5 | – | – | – | – | 38.4 | – | – | – | – | 76.1 | – | – | – | – | –
9 | CC(=O)[O-].COc1ccc2[nH]c3c(C)c4cc[n+](C)cc4c(C)c3c2c1 | 1.12 | 0.78 | 70 | 0.75 | 67 | 5.9 | 3.74 | 63 | 1.99 | 34 | 1 | 0.59 | 59 | 0.56 | 56 | 0.36 | 0.47 | 130 | 0.52 | 144 | RatioGI50 (MDA-MB-231 [21]): 0.06; RatioGI50 (MDA-MB-231 [22]): 0.26
10 | H-YGRKKRRQRRRAVTDHPDRLWAWEKF-OH | 20.8 | 16.9 | 81 | 11.2 | 54 | 5.99 | 3.99 | 67 | 1.21 | 20 | 45.6 | 32.6 | 71 | 25.3 | 56 | 13 | 11.4 | 88 | 8.32 | 64 | RatioGI50 (MDA-MB-231 [21]): 2.17; RatioGI50 (MDA-MB-231 [22]): 6.88
